According to patent publication US9475824B2, “Fused pyrimidines as inhibitors of p97 complex” (Cleave Biosciences, Inc., priority 2012, dated 2016):

target: p97 (Homo sapiens, UniProt P55072); assay: P97 ATPase biochemical assay (ADP Glo); conditions: 20 nM p97, 20 μM ATP, 37° C. 15 minutes
Procedure: The ATPase assay is performed according the following protocol: Purified enzyme (20 nM p97), substrate (20 μM ATP) and a dose titration of compounds are mixed in buffer (50 mM TRIS pH 7.5, 20 mM MgCl2, 0.02% TX-100, 1 mM DTT, 0.2% (v/v) glycerol) and incubated at 37° C. for 15 minutes. The reaction is terminated and the level of product generated is measured using the ADP Glo Assay Kit (Promega, Madison Wis.). Plotting product generated versus compound concentration and using a four-parameter fit model generates an IC50 value for each compounds.
The p97 assay is an initial screening assay used to determine inhibitory activity of the fused pyrimidine compounds of the invention against the p97 complex. As discussed above, inhibition of activity of the p97 proteosome complex can enable apoptosis and cause elimination of neoplastic cells (cancer cells). The method follows that of Christianson in Nat.
Assay Buffer is a mixture of 50 mM TRIS pH 7.5, 20 mM MgCl2, 0.02% TX-100, 1 mM DTT and 0.2% (v/v) Glycerol. […] The identification kit is an ADP glo kit (Promega): stop buffer, detection reagent.
0.5 μL compound serial diluted in DMSO (Final Conc. 10%)
2 μL ATP (Final Conc.=20 uM, diluted in assay buffer)
2.5 μL p97 (Final Conc.=20 nM, diluted in assay buffer)
Incubate at 37 degC for 15 min.
Add 5 μL of stop buffer, incubate at RT for 40 min.
Add 10 μL of detection reagent, incubate at RT for 30 min.
Read luminescence on Envision plate reader.
Plot normalized luminescence data against log-transformed concentration values and fit to a sigmoidal curve to determine IC50 values (done in Collaborative Drug Discovery software).

p97, sequence (P55072 whole entry): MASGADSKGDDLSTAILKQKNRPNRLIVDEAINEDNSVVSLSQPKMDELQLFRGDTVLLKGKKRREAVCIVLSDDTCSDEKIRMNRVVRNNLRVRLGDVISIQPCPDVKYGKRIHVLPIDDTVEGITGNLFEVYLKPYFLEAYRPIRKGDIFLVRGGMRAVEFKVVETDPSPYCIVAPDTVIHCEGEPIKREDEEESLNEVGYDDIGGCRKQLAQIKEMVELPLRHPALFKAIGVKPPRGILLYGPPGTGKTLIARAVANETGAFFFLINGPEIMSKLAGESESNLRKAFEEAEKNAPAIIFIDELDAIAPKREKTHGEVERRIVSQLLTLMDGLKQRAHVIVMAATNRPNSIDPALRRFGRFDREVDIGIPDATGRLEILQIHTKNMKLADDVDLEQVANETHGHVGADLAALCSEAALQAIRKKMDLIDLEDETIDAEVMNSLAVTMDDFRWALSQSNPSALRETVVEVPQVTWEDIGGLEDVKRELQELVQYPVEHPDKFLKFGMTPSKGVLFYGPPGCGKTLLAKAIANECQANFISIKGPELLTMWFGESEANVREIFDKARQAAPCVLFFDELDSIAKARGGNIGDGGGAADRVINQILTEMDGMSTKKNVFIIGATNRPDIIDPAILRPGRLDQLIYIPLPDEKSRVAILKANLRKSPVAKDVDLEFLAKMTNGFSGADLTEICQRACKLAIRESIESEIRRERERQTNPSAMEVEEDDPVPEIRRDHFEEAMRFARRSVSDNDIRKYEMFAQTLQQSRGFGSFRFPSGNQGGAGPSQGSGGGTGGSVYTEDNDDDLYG

| IC50 [nM] | SMILES |
| --- | --- |
| < 1000 | Cc1cc2c(C(=O)NCCN(C)C)cccc2n1-c1nc2c(c(NCc3ccccc3)n1)COCC2 [compound 102, 1-[4-(benzylamino)-5H,7H,8H-pyrano[4,3-d]pyrimidin-2-yl]-N-[2-(dimethylamino)ethyl]-2-methyl-1H-indole-4-carboxamide] |
| < 30 | NC(=O)c1cccc2c1cc(C1CC1)n2-c1nc2c(c(NCc3ccccc3)n1)COCC2 [compound 131, 1-[4-(benzylamino)-5H,7H,8H-pyrano[4,3-d]pyrimidin-2-yl]-2-cyclopropyl-1H-indole-4-carboxamide] |
| < 1000 | N#Cc1cccc2c1nc(CN)n2-c1nc2c(c(NCc3ccccc3)n1)CCCC2 [compound 87, 2-(aminomethyl)-1-[4-(benzylamino)-5,6,7,8-tetrahydroquinazolin-2-yl]-1H-1,3-benzodiazole-4-carbonitrile] |
| < 30 | CCOc1cc2c(C(N)=O)cccc2n1-c1nc2c(c(NCc3ccccc3)n1)CCCC2 [compound 135, 1-[4-(benzylamino)-5,6,7,8-tetrahydroquinazolin-2-yl]-2-ethoxy-1H-indole-4-carboxamide] |
| < 100 | Cc1cc2c(C(=O)O)cccc2n1-c1nc2c(c(NCc3ccccc3)n1)CNCC2 [compound 117, 1-[4-(benzylamino)-5H,6H,7H,8H-pyrido[4,3-d]pyrimidin-2-yl]-2-methyl-1H-indole-4-carboxylic acid] |
| < 100 | COc1cccc2c(NCc3ccccc3)nc(-n3c(CN)cc4ccccc43)nc12 [compound 15, 2-[2-(aminomethyl)-1H-indol-1-yl]-N-benzyl-8-methoxyquinazolin-4-amine] |
| < 300 | Cc1cc2ccccc2n1-c1nc2c(c(NCc3ccccc3)n1)CNCC2 [compound 10, N-benzyl-2-(2-methyl-1H-indol-1-yl)-5H,6H,7H,8H-pyrido[4,3-d]pyrimidin-4-amine] |
| < 30 | Cc1cc2c(-c3nnn[nH]3)cccc2n1-c1nc2c(c(NCc3ccccc3)n1)COCC2 [compound 120, N-benzyl-2-[2-methyl-4-(1H-1,2,3,4-tetrazol-5-yl)-1H-indol-1-yl]-5H,7H,8H-pyrano[4,3-d]pyrimidin-4-amine] |
| < 1000 | Cc1cc2ccccc2n1-c1nc(NCc2ccccc2)c2cccc(C#N)c2n1 [compound 19, 4-(benzylamino)-2-(2-methyl-1H-indol-1-yl)quinazoline-8-carbonitrile] |
| < 100 | NCc1cc2c(C(N)=O)cccc2n1-c1nc2c(c(NCc3ccccc3)n1)COCC2 [compound 86, 2-(aminomethyl)-1-[4-(benzylamino)-5H,7H,8H-pyrano[4,3-d]pyrimidin-2-yl]-1H-indole-4-carboxamide] |
| < 1000 | CN(C)Cc1cc2c(C(N)=O)cccc2n1-c1nc2c(c(NCc3ccccc3)n1)COCC2 [compound 95, 1-[4-(benzylamino)-5H,7H,8H-pyrano[4,3-d]pyrimidin-2-yl]-2-[(dimethylamino)methyl]-1H-indole-4-carboxamide] |
| < 1000 | CC(C)c1cc2c(C(N)=O)cccc2n1-c1nc2c(c(NCc3ccccc3)n1)COCC2 [compound 129, 1-[4-(benzylamino)-5H,7H,8H-pyrano[4,3-d]pyrimidin-2-yl]-2-(propan-2-yl)-1H-indole-4-carboxamide] |
| < 30 | COc1nc2c(C(=O)O)cccc2n1-c1nc2c(c(NCc3ccccc3)n1)CCCC2 [compound 116, 1-[4-(benzylamino)-5,6,7,8-tetrahydroquinazolin-2-yl]-2-methoxy-1H-1,3-benzodiazole-4-carboxylic acid] |
| < 100 | NC(=O)NCc1cc2c(C(N)=O)cccc2n1-c1nc2c(c(NCc3ccccc3)n1)CCCC2 [compound 127, 1-[4-(benzylamino)-5,6,7,8-tetrahydroquinazolin-2-yl]-2-[(carbamoylamino)methyl]-1H-indole-4-carboxamide] |
| < 300 | Cc1cc2ccccc2n1-c1nc(NCc2ccccc2)c2cccc(C(N)=O)c2n1 [compound 17, 4-(benzylamino)-2-(2-methyl-1H-indol-1-yl)quinazoline-8-carboxamide] |
| < 300 | COCCOc1cccc2c(NCc3ccccc3)nc(-n3c(CN)cc4ccccc43)nc12 [compound 23] |
| < 1000 | Oc1nc2ccccc2n1-c1nc2c(c(NCc3ccccc3)n1)CCCC2 [compound 89, 1-[4-(benzylamino)-5,6,7,8-tetrahydroquinazolin-2-yl]-1H-1,3-benzodiazol-2-ol] |
| < 1000 | Cc1cc2c(C(=O)NC(C)C)cccc2n1-c1nc2c(c(NCc3ccccc3)n1)COCC2 [compound 99, 1-[4-(benzylamino)-5H,7H,8H-pyrano[4,3-d]pyrimidin-2-yl]-2-methyl-N-(propan-2-yl)-1H-indole-4-carboxamide] |
| < 300 | Cc1cc2c(F)cccc2n1-c1nc2c(c(NCc3ccccc3)n1)CNCC2 [compound 41, N-benzyl-2-(4-fluoro-2-methyl-1H-indol-1-yl)-5H,6H,7H,8H-pyrido[4,3-d]pyrimidin-4-amine] |
| < 1000 | CC(N)c1cc2ccccc2n1-c1nc2c(c(NCc3ccccc3)n1)CCCC2 (stereo not drawn) [compound 22, 2-[2-(1-aminoethyl)-1H-indol-1-yl]-N-benzyl-5,6,7,8-tetrahydroquinazolin-4-amine] |
| < 1000 | Cc1cc2c(C(=O)N(C)C)cccc2n1-c1nc2c(c(NCc3ccccc3)n1)CCCC2 [compound 133, 1-(4-(benzylamino)-5,6,7,8-tetrahydroquinazolin-2-yl)-N,N,2-trimethyl-1H-indole-4-carboxamide] |
| < 1000 | COc1cccc2c1cc(C)n2-c1nc2c(c(NCc3ccccc3)n1)CNCC2 [compound 43] |
| < 300 | Cc1cc2ccccc2n1-c1nc2c(c(NCc3ccccc3)n1)CCNC2 [compound 11, N-benzyl-2-(2-methyl-1H-indol-1-yl)-5H,6H,7H,8H-pyrido[3,4-d]pyrimidin-4-amine] |
| < 1000 | CCCN1CCc2nc(-n3c(C)cc4ccccc43)nc(NCc3ccccc3)c2C1 [compound 65, N-benzyl-2-(2-methyl-1H-indol-1-yl)-6-propyl-5H,6H,7H,8H-pyrido[4,3-d]pyrimidin-4-amine] |
| < 300 | Cc1cc2ccccc2n1-c1nc2c(c(NCc3ccccc3)n1)COC2 [compound 18, N-benzyl-2-(2-methyl-1H-indol-1-yl)-5H,7H-furo[3,4-d]pyrimidin-4-amine] |
| < 1000 | Cc1cc2ccccc2n1-c1nc(NCc2ccccc2)c2cccc(CN)c2n1 [compound 2, 8-(aminomethyl)-N-benzyl-2-(2-methyl-1H-indol-1-yl)quinazolin-4-amine] |
| < 100 | COc1nc2ccccc2n1-c1nc(NCc2ccccc2)c2ncsc2n1 [compound 4, N-benzyl-5-(2-methoxy-1H-1,3-benzodiazol-1-yl)-[1,3]thiazolo[5,4-d]pyrimidin-7-amine] |
| < 100 | COc1cccc2c(NCc3ccccc3)nc(-n3c(C)cc4ccccc43)nc12 [compound 8, N-benzyl-8-methoxy-2-(2-methyl-1H-indol-1-yl)quinazolin-4-amine] |
| < 100 | COc1cccc2c(NCc3ccccc3)nc(-n3c(OC)nc4ccccc43)nc12 [compound 1, N-benzyl-8-methoxy-2-(2-methoxy-1H-1,3-benzodiazol-1-yl)quinazolin-4-amine] |
| < 1000 | COCCOc1cccc2c(NCc3ccccc3)nc(-n3c(CN)nc4c(C(N)=O)cccc43)nc12 [compound 88, 2-(aminomethyl)-1-[4-(benzylamino)-8-(2-methoxyethoxy)quinazolin-2-yl]-1H-1,3-benzodiazole-4-carboxamide] |
